Counter-ions that a name gives are not always drawn.
The molecules below were run against T1, human TRPV4 (Homo sapiens, UniProt Q9HBA0) (assay: Fluorometric cell-based Ca2+ flux assay, HEK-293 cells stably overexpressing human TRPV4). Settings: HEK-293 stably overexpressing human TRPV4; agonist GSK1016790A 30 nM.
T1 construct: expressed in transfected cells
Method: Fluorometric cell-based Ca^2+ flux assays were performed to assess TRPV4 antagonist activity and determine potency (IC50 values) in human embryonic kidney-293 cells (HEK-293) that stably overexpress human TRPV4. The assays were performed according to methods described in: Deering-Rice, C. E., Johansen, M. E., Roberts, J. K., Thomas, K. C., Romero, E. G., Lee, J., Yost, G. S., Veranth, J. M., and Reilly, C. A. (2012), Mol. Pharmacol. 81(3), 411-419; Shapiro, D., Deering-Rice, C. E., Romero, E. G., Hughen, R. W., Light, A. R., Veranth, J. M., and Reilly, C. A. (2013), Chem Res. Toxicol., 26, 750-758; and Deering-Rice, C. E., Mitchell, V. K., Romero, E. G., Abdel Aziz, M. H., and Reilly, C. A. (2014), Pharmacol. Res. & Perspectives. 2(5), 1-10.
The HEK-293 cells stably overexpressing human TRPV4 were grown to confluence in 2% (w/v) gelatin-coated 96-well plates in DMEM:F12 media supplemented with 5% fetal bovine serum, 1× penicillin/streptomycin (Invitrogen) and Geneticin (300 μg/mL).
The HEK-293 cells were prepared for assay by replacing the growth media with a 1:1 solution of LHC-9 and Fluo 4-Direct (Invitrogen) reagent containing Fluo 4-AM, pluronic F-127, probenecid, and a proprietary quencher dye. The cells were then incubated at 37° C. for 1 h in a cell culture incubator. The cells were subsequently washed by replacing the loading solution with LHC-9 containing 1 mM water-soluble probenecid (Invitrogen), 750 μM Trypan Red (ATT Bioquest), and a test compound (at various concentrations). The cells were incubated for an additional 30 minutes at 37° C. to allow for Fluo 4-AM cleavage and activation, as well as equilibration to both the test compounds and Fluo 4.
An agonist treatment solution (90 nM GSK1016790A, a potent activator of TRPV4) was prepared in LHC9 at 3× concentration and 25 μL was added to 50 μL of media on the cells in 96 well plates, providing a final concentration of 30 nM. Changes in cellular fluorescence were monitored with a BMG Labtech NOVOStar fluorescence plate reader for 1 minute at 37° C. Data were quantified as the maximum rate of change in fluorescence intensity (max ΔF/s), corrected for media only treatment (negative control), and represented as the percentage of response relative to the no antagonist control. A minimum of three replicates were used for each treatment condition, with a minimum of 8 concentrations to derive the IC50 values reported for each antagonist. The IC50 values for each antagonist, which are shown in Table 4 below, were calculated according to methods described in the assays were performed according to methods described in: Deering-Rice, C. E., Johansen, M. E., Roberts, J. K., Thomas, K. C., Romero, E. G., Lee, J., Yost, G. S., Veranth, J. M., and Reilly, C. A. (2012), Mol. Pharmacol. 81(3), 411-419; Shapiro, D., Deering-Rice, C. E., Romero, E. G., Hughen, R. W., Light, A. R., Veranth, J. M., and Reilly, C. A. (2013), Chem Res. Toxicol., 26, 750-758; and Deering-Rice, C. E., Mitchell, V. K., Romero, E. G., Abdel Aziz, M. H., and Reilly, C. A. (2014), Pharmacol. Res. & Perspectives. 2(5), 1-10.

T1 sequence (Q9HBA0 whole entry): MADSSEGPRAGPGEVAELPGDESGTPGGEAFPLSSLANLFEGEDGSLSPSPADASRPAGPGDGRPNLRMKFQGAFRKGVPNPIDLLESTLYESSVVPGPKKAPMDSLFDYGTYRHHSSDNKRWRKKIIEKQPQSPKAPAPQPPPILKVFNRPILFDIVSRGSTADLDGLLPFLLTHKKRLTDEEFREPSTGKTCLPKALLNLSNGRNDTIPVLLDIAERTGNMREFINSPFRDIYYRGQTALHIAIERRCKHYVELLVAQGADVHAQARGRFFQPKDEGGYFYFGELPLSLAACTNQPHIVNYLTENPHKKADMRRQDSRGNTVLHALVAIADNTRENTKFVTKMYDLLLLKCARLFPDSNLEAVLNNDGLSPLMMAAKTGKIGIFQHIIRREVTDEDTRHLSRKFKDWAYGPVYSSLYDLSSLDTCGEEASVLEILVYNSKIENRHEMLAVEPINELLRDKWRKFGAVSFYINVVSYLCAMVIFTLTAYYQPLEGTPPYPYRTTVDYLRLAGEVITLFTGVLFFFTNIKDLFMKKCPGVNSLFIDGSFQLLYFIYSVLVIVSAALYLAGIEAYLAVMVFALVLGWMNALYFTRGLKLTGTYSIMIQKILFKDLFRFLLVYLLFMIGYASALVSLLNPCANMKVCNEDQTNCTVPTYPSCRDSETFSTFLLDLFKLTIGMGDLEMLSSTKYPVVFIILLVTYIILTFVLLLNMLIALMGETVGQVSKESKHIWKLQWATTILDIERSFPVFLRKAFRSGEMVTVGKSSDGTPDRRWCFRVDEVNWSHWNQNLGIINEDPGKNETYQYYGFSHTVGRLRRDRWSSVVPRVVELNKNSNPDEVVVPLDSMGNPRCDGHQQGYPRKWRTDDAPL

| Structure (SMILES) | IC50 |
| --- | --- |
| N#Cc1ccc(OCC2(CO)CN(S(=O)(=O)c3ccc(F)cc3C#N)C2)cc1F [Compound 104, 4-((1-((2-Cyano-4-fluorophenyl)sulfonyl)-3-(hydroxymethyl)azetidin-3-yl)methoxy)-2-fluorobenzonitrile] | 29.3 nM |
| N#Cc1ccc(OCC2(CNCC3CCOC3)CN(S(=O)(=O)c3ccc(Cl)cc3Cl)C2)cc1F (stereo not drawn) [Compound 23, 4-((1-((2,4-Dichlorophenyl)sulfonyl)-3-((((tetrahydrofuran-3-yl)methyl)amino)methyl)azetidin-3-yl)methoxy)-2-fluorobenzonitrile hydrochloride] | 4.1 nM |
| N#Cc1ccc(OCC2(CNC(=O)CN)CN(S(=O)(=O)c3ccc(Cl)cc3Cl)C2)cc1F [Compound 46, 2-Amino-N-((3-((4-cyano-3-fluorophenoxy)methyl)-1-((2,4-dichlorophenyl)sulfonyl)azetidin-3-yl)methyl)acetamide] | 52 nM |
| N#Cc1ccc(OCC2(CNCC(N)=O)CN(S(=O)(=O)c3ccc(Cl)cc3Cl)C2)cc1F [Compound 20, 2-(((3-((4-Cyano-3-fluorophenoxy)methyl)-1-((2,4-dichlorophenyl)sulfonyl)azetidin-3-yl)methyl)amino)acetamide hydrochloride] | 153 nM |
| Cc1cc(OCC2(CO)CN(S(=O)(=O)c3ccc(Cl)cc3Cl)C2)ccn1 [Compound 95, (1-((2,4-Dichlorophenyl)sulfonyl)-3-(((2-methylpyridin-4-yl)oxy)methyl)azetidin-3-yl)methanol] | ~3000 nM |
| N#Cc1ccc(OCC2(CNC3CCOCC3)CN(S(=O)(=O)c3ccccc3C#N)C2)cc1F [Compound 116, 4-((1-((2-Cyanophenyl)sulfonyl)-3-(((tetrahydro-2H-pyran-4-yl)amino)methyl)azetidin-3-yl)methoxy)-2-fluorobenzonitrile] | 0.41 nM |
| CC(=O)NCC1(COc2ccc(C#N)c(F)c2)CN(S(=O)(=O)c2ccc(Cl)cc2Cl)C1 [Compound 45, N-((3-((4-Cyano-3-fluorophenoxy)methyl)-1-((2,4-dichlorophenyl)sulfonyl)azetidin-3-yl)methyl)acetamide] | 3000 nM |
| N#Cc1ccc(OCC2(CO)CN(S(=O)(=O)c3ccc(OC(F)(F)F)cc3Br)C2)cc1F [Compound 105, 4-((1-((2-Bromo-4-(trifluoromethoxy)phenyl)sulfonyl)-3-(hydroxymethyl)azetidin-3-yl)methoxy)-2-fluorobenzonitrile] | 1200 nM |
| N#Cc1ccc(OCC2(NC(=O)CN)CN(S(=O)(=O)c3ccc(Cl)cc3Cl)C2)cc1F [Compound 55, 2-Amino-N-(3-((4-cyano-3-fluorophenoxy)methyl)-1-((2,4-dichlorophenyl)sulfonyl)azetidin-3-yl)acetamide] | 23 nM |
| N#Cc1ccc(OCC2(C(N)=O)CN(S(=O)(=O)c3ccc(Cl)cc3Cl)C2)cc1F [Compound 9, 3-((4-Cyano-3-fluorophenoxy)methyl)-1-((2,4-dichlorophenyl)sulfonyl)azetidine-3-carboxamide] | 1090 nM |
| O=S(=O)(c1ccc(Cl)cc1Cl)N1CC(CO)(COc2ccnc(Cl)c2)C1 [Compound 94, (3-(((2-Chloropyridin-4-yl)oxy)methyl)-1-((2,4-dichlorophenyl)sulfonyl)azetidin-3-yl)methanol] | ~3000 nM |
| COc1cc(C#N)c(F)cc1OCC1(CO)CN(S(=O)(=O)c2ccccc2C#N)C1 [Compound 109, 4-((1-((2-Cyanophenyl)sulfonyl)-3-(hydroxymethyl)azetidin-3-yl)methoxy)-2-fluoro-5-methoxybenzonitrile] | 940 nM |
| Cc1ccc(S(=O)(=O)N2CC(CO)(COc3ccc(C#N)c(F)c3)C2)c(Cl)c1 [Compound 82, 4-((1-((2-Chloro-4-methylphenyl)sulfonyl)-3-(hydroxymethyl)azetidin-3-yl)methoxy)-2-fluorobenzonitrile] | > 27 nM |
| CCOC(=O)C1(COc2ccc(C#N)c(F)c2)CN(S(=O)(=O)c2ccc(Cl)cc2Cl)C1 [Compound 7, Ethyl 3-((4-cyano-3-fluorophenoxy)methyl)-1-((2,4-dichlorophenyl)sulfonyl)azetidine-3-carboxylate] | 5000 nM |
| N#Cc1ccc(OCC2(C(=O)NC3CCOCC3)CN(S(=O)(=O)c3ccc(Cl)cc3Cl)C2)cc1 [Compound 6, 3-((4-cyanophenoxy)methyl)-1-((2,4-dichlorophenyl)sulfonyl)-N-(tetrahydro-2H-pyran-4-yl)azetidine-3-carboxamide] | 12900 nM |
| N#Cc1ccc(OCC2(CO)CN(S(=O)(=O)c3ccccc3)C2)cc1F [Compound 72, 2-Fluoro-4-((3-(hydroxymethyl)-1-(phenylsulfonyl)azetidin-3-yl)methoxy)benzonitrile] | 5000 nM |
| Cc1nc(C)c(S(=O)(=O)N2CC(CO)(COc3ccc(C#N)c(F)c3)C2)s1 [Compound 65, 4-((1-((2,4-Dimethylthiazol-5-yl)sulfonyl)-3-(hydroxymethyl)azetidin-3-yl)methoxy)-2-fluorobenzonitrile] | 5000 nM |
| COCC1(COc2ccc(C#N)c(F)c2)CN(S(=O)(=O)c2ccc(Cl)cc2Cl)C1 [Compound 13, 4-((1-((2,4-Dichlorophenyl)sulfonyl)-3-(methoxymethyl)azetidin-3-yl)methoxy)-fluorobenzonitrile] | 62 nM |
| N#Cc1ccc(NCC2(CO)CN(S(=O)(=O)c3ccc(Cl)cc3Cl)C2)cc1F [Compound 101, 4-(((1-((2,4-dichlorophenyl)sulfonyl)-3-(hydroxymethyl)azetidin-3-yl)methyl)amino)-2-fluorobenzonitrile] | 136 nM |
| CCOc1cc(OCC2(COC(=O)c3ccc(Br)cc3)CN(S(=O)(=O)c3ccc(Cl)cc3Cl)C2)ccc1C#N [Compound 99, (3-((4-Cyano-3-ethoxyphenoxy)methyl)-1-((2,4-dichlorophenyl)sulfonyl)azetidin-3-yl)methyl 4-bromobenzoate] | > 1000 nM |
| Cc1cc(Cl)ccc1S(=O)(=O)N1CC(CO)(COc2ccc(C#N)c(F)c2)C1 [Compound 74, 4-((1-((4-Chloro-2-methylphenyl)sulfonyl)-3-(hydroxymethyl)azetidin-3-yl)methoxy)-2-fluorobenzonitrile] | 520 nM |
| N#Cc1ccc(OCC2(CO)CN(S(=O)(=O)c3ccccc3Cl)C2)cc1F [Compound 58, 4-((1-((2-Chlorophenyl)sulfonyl)-3-(hydroxymethyl)azetidin-3-yl)methoxy)-2-fluorobenzonitrile] | 413 nM |
| NC(=O)c1ccc(OCC2(CO)CN(S(=O)(=O)c3ccc(Cl)cc3Cl)C2)cc1 [Compound 93, 4-((1-((2,4-Dichlorophenyl)sulfonyl)-3-(hydroxymethyl)azetidin-3-yl)methoxy)benzamide] | ~5000 nM |
| O=S(=O)(c1ccc(Cl)cc1Cl)N1CC(CO)(COc2ccc(F)c(F)c2)C1 [Compound 87, (1-((2,4-Dichlorophenyl)sulfonyl)-3-((3,4-difluorophenoxy)methyl)azetidin-3-yl)methanol] | 1000 to 3000 nM |
| Cc1ccc(OCC2(CO)CN(S(=O)(=O)c3ccc(Cl)cc3Cl)C2)cc1 [Compound 92, (1-((2,4-Dichlorophenyl)sulfonyl)-3-((p-tolyloxy)methyl)azetidin-3-yl)methanol] | ~5000 nM |
| N#Cc1ccc(OCC2(CNS(=O)(=O)CCN)CN(S(=O)(=O)c3ccc(Cl)cc3Cl)C2)cc1F [Compound 49, 2-Amino-N-((3-((4-cyano-3-fluorophenoxy)methyl)-1-((2,4-dichlorophenyl)sulfonyl)azetidin-3-yl)methyl)ethane-1-sulfonamide] | 110 nM |
| N#Cc1ccc(OCC2(CO)CN(S(=O)(=O)c3ccc(Cl)cc3)C2)cc1F [Compound 84, 4-((1-((4-Chlorophenyl)sulfonyl)-3-(hydroxymethyl)azetidin-3-yl)methoxy)-2-fluorobenzonitrile] | > 302 nM |

Source: patent US20230026696A1, “TRPV4 RECEPTOR LIGANDS” (UNIVERSITY OF UTAH RESEARCH FOUNDATION, priority 2019, published 2023)
